# Laboratory results: the supplement of paper PMC10307832
# Experiments:
# Assay in all cases: relative viability (nuclei count vs DMSO), 5 days (fraction); higher = more cells survive
# Vismodegib + Pictilisib = compound: CS(=O)(=O)c1ccc(C(=O)Nc2ccc(Cl)c(-c3ccccn3)c2)c(Cl)c1 [Vismodegib] + CS(=O)(=O)N1CCN(Cc2cc3nc(-c4cccc5[nH]ncc45)nc(N4CCOCC4)c3s2)CC1 [Pictilisib] (partner 1 µM)
# Method in brief: (§1)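 A single step with final 0.05% Triton X-100, 1% formaldehyde and 1 ug/ml Hoechst fixed the cells and stained nuclei 5 days after treatment. Lung cancer cell lines in 1536-well plates had been treated by pin tool the day after seeding with one drug alone or a fixed anchor-drug dose plus five library-drug doses (not always all listed) in √10 steps, and nuclei were counted on 4× images. Relative viability is the ratio of nuclei in treated wells to nuclei in vehicle wells, taken as the median of duplicate plates.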
# Ruxolitinib + Luminespib = compound: N#CC[C@H](C1CCCC1)n1cc(-c2ncnc3[nH]ccc23)cn1 [Ruxolitinib] + CCNC(=O)c1noc(-c2cc(C(C)C)c(O)cc2O)c1-c1ccc(CN2CCOCC2)cc1 [Luminespib] (partner 0.01 µM)
# Method in brief: as §1
# Vismodegib + Luminespib = compound: CS(=O)(=O)c1ccc(C(=O)Nc2ccc(Cl)c(-c3ccccn3)c2)c(Cl)c1 [Vismodegib] + CCNC(=O)c1noc(-c2cc(C(C)C)c(O)cc2O)c1-c1ccc(CN2CCOCC2)cc1 [Luminespib] (partner 0.01 µM)
# Method in brief: as §1
# Ruxolitinib + Trametinib = compound: N#CC[C@H](C1CCCC1)n1cc(-c2ncnc3[nH]ccc23)cn1 [Ruxolitinib] + CC(=O)Nc1cccc(-n2c(=O)n(C3CC3)c(=O)c3c(Nc4ccc(I)cc4F)n(C)c(=O)c(C)c32)c1 [Trametinib] (partner 0.02 µM)
# Method in brief: as §1
cell line,measurement,setting,value
UMC-11,relative viability,Vismodegib + Pictilisib; first compound 0.08 µM,0.727
same,relative viability,Vismodegib + Pictilisib; first compound 0.253 µM,0.703
same,relative viability,Vismodegib + Pictilisib; first compound 0.8 µM,0.738
same,relative viability,Vismodegib + Pictilisib; first compound 2.53 µM,0.75
same,relative viability,Vismodegib + Pictilisib; first compound 8 µM,0.271
same,relative viability,Ruxolitinib + Luminespib; first compound 0.08 µM,1.04
same,relative viability,Ruxolitinib + Luminespib; first compound 0.253 µM,1.03
same,relative viability,Ruxolitinib + Luminespib; first compound 0.8 µM,1.26
same,relative viability,Ruxolitinib + Luminespib; first compound 2.53 µM,1.1
same,relative viability,Ruxolitinib + Luminespib; first compound 8 µM,0.978
same,relative viability,Vismodegib + Luminespib; first compound 0.08 µM,0.937
same,relative viability,Vismodegib + Luminespib; first compound 0.253 µM,0.966
same,relative viability,Vismodegib + Luminespib; first compound 0.8 µM,1.01
same,relative viability,Vismodegib + Luminespib; first compound 2.53 µM,0.933
same,relative viability,Vismodegib + Luminespib; first compound 8 µM,1.04
same,relative viability,Ruxolitinib + Trametinib; first compound 0.08 µM,0.823
same,relative viability,Ruxolitinib + Trametinib; first compound 0.253 µM,0.703
same,relative viability,Ruxolitinib + Trametinib; first compound 0.8 µM,0.872
same,relative viability,Ruxolitinib + Trametinib; first compound 2.53 µM,1.03
same,relative viability,Ruxolitinib + Trametinib; first compound 8 µM,0.653
